Values after ≈ are worked out from the molar mass of the structure shown. “Also recorded” adds a separate entry of the source. Like-named read-outs stand apart in the source and are kept apart here.
Assays:
Assay type in all cases: physicochemical
[1] = Physical (solid form) stability on storage or stirring, by PXRD; details: for Physical stability by PXRD: 40° C./75% RH for 6 days
Procedure: PXRD diffractograms were acquired using PANalytical X'Pert Pro diffractometer on Si zero-background wafers. All diffractograms were collected using a monochromatic Cu Kα (45 kV/40 mA) radiation and a step size of 0.02° 2θ.
Form 1 is a crystalline powder with a PXRD pattern indicated at FIG. 1. FT-Raman (FIG. 2) and FT-IR Spectra (FIG. 3) were also collected. […] HPLC analysis indicated high purity of the material (>99.9% AUC). […] (FIG. 4). The PXRD diffractogram of the material heated past the exothermic event (heating to 261° C. followed by isothermal hold for 7 min) indicates a racemization of D-(S)-lenalidomide, as confirmed by chiral HPLC analyses of a reference material. […] This conclusion is based on two simultaneously run experiments. In one experiment, […] was exposed to 40° C./75% RH. […] Moreover, even this formation of Form 3 may have been at least in part the result of condensation inside of the RH chamber towards the end of the experiment, as a result of which Form 1 became slightly wet.
PXRD (FIG. 6) and PLM microscopy analyses indicate Form 2 to be partially crystalline and phase-impure with amorphous content. Thermal analyses confirmed that the material loses 4.3% wt. upon heating up to 160° C. (FIG. 8). IR analysis of the volatile component released upon heating confirmed water. The loss of water corresponds to broad endothermic (50-100° C.) and exothermic (120-160° C.) events on the DSC trace (FIG. 8), indicating potential dehydration and crystallization, respectively. An FT-Raman spectrum is provided at FIG. 7.

[2] = Visually estimated solubility of Form 1 in an array of solvents
Procedure: Solubility of Form 1 was visually estimated in an array of different solvents. […] Where applicable, the undissolved solids were analyzed by PXRD to verify crystal form. The data are shown in and indicate that the solubility of Form 1 to be relatively low in water and common organic solvents, (<6 mg/mL), very high in dimethylsulfoxide (DMSO; >400 mg/mL), and moderate in water- or DMSO-containing binary solvent systems.
Solubility of Form 1 was visually estimated in an array of diverse solvents. […] Where applicable, the undissolved solids were analyzed by PXRD to verify crystal form. The data are shown in Table 2 and indicate that the solubility of Form 1 is relatively low in water and common organic solvents, (<6 mg/mL), very high in dimethylsulfoxide (DMSO; >400 mg/mL), and moderate in water- or DMSO-containing binary solvent systems.

[3] = Dynamic vapor sorption (DVS) hygroscopicity
Procedure: DVS experiments were conducted on a Surface Measurement Systems DVS-HT at 25° C. The instrument was operated in step mode and the relative humidity was increased in 10% RH increments from 40% RH to 90% RH, then decreased from 90% RH to 0% RH, then increased from 0% RH to 90% RH, then decreased from 90% RH to 0% RH. An extra step at 75% RH was included in each cycle. The mass equilibrium criterion was set at 0.005% change in mass over time (dm/dt) prior to each humidity level. A minimum step time of 10 minutes and a maximum step time of 240 minutes were specified.

[4] = Relative stability of Forms 1 and 3 in water/organic mixtures (seeded suspensions)
Procedure: A series of experiments were conducted to assess the relative stability of Forms 1 and 3. […] The suspensions were each seeded with a small amount of Form 3 (˜1 mg) and stirred until a complete form conversion occurred.

[5] = HPLC analysis of degradation; details: material from rapid evaporation of methanol solution (rotovapped at 65° C.)
Procedure: HPLC analyses were conducted with an HP1100 system equipped with a G1131 Quad pump, G1367A autosampler, and G1315B diode array detector. Column: Luna C18(2) (50×2.0 mm, 3 μm). Mobile phase: 100% vol. water (0.05% vol. TFA) to 95% acetonitrile (0.05% vol. TFA) over 8 min and 2 min re-equilibration. Flow rate: 1 mL/min. Detection: 254 nm.

[2H]C1([2H])C(=O)NC(=O)[C@@]([2H])(N2Cc3c(N)cccc3C2=O)C1([2H])[2H] [Form 2]
Time physically stable [1]: at least 24 hrs
Form conversion on storage ([1]; closed vial at room temperature, within 3 weeks): converts to a mixture of Forms 1 and 3; also recorded: converted to Forms 1 and 3
Form obtained upon stirring in water ([1]; water, 12 hr at 5° C.): Form 3 formed

[2H]C1([2H])C(=O)NC(=O)[C@@]([2H])(N2Cc3c(N)cccc3C2=O)C1([2H])[2H] (single isomer, unassigned) [Form 1, 3-(4-amino-1-oxoisoindolin-2-yl)(piperidine-3,4,4,5,5-d5)-2,6-dione]
Physical stability by PXRD [1]: physically stable; also recorded: Form 1 as the major component, with only a trace of Form 3 being formed
Residual Solid (crystal form of undissolved solids by PXRD) ([2]; 1,4-Dioxane): Form 1
solubility ([2]; 1,4-dioxane, 40 °C, organic solvent or mixture, thermodynamic from solid, read-out: Solubility at 40° C.): > 6000 µg/mL
Residual Solid (crystal form of undissolved solids by PXRD) ([2]; 2-Propanol): Form 1
solubility ([2]; 2-propanol, 40 °C, organic solvent or mixture, thermodynamic from solid, read-out: Solubility at 40° C.): < 1000 µg/mL
Solubility at RT ([2]; DMSO, 20° C.): >400000 µg/mL
Residual Solid (crystal form of undissolved solids by PXRD) ([2]; Dichloromethane): Form 1
Residual Solid (crystal form of undissolved solids by PXRD) ([2]; Ethyl Acetate): Form 1
Residual Solid (crystal form of undissolved solids by PXRD) ([2]; Heptane): Form 1
Residual Solid (crystal form of undissolved solids by PXRD) ([2]; Toluene): Form 1
solubility ([2]; dichloromethane, 40 °C, organic solvent or mixture, thermodynamic from solid, read-out: Solubility at 40° C.): < 1000 µg/mL
solubility ([2]; ethyl acetate, 40 °C, organic solvent or mixture, thermodynamic from solid, read-out: Solubility at 40° C.): < 1000 µg/mL
solubility ([2]; heptane, 40 °C, organic solvent or mixture, thermodynamic from solid, read-out: Solubility at 40° C.): < 1000 µg/mL
solubility ([2]; organic solvent or mixture, thermodynamic from solid, 1,4-Dioxane, 20° C., read-out: Solubility at RT): < 1000 µg/mL
solubility ([2]; organic solvent or mixture, thermodynamic from solid, 2-Propanol: 10% vol. DMSO, 20° C., read-out: Solubility at RT): 1000 to 10000 µg/mL (≈ 3.78 to 37.8 mM)
solubility ([2]; organic solvent or mixture, thermodynamic from solid, 2-Propanol, 20° C., read-out: Solubility at RT): < 1000 µg/mL
solubility ([2]; organic solvent or mixture, thermodynamic from solid, Acetone, 20° C., read-out: Solubility at RT): 1000 to 6000 µg/mL (≈ 3.78 to 22.7 mM)
solubility ([2]; organic solvent or mixture, thermodynamic from solid, Acetonitrile: 10% vol. DMSO, 20° C., read-out: Solubility at RT): 10000 to 30000 µg/mL (≈ 37.8 to 114 mM)
solubility ([2]; organic solvent or mixture, thermodynamic from solid, Acetonitrile: 10% vol. Water, 20° C., read-out: Solubility at RT): 14000 to 17000 µg/mL (≈ 53 to 64.3 mM)
solubility ([2]; organic solvent or mixture, thermodynamic from solid, Acetonitrile, 20° C., read-out: Solubility at RT): 1000 to 6000 µg/mL (≈ 3.78 to 22.7 mM)
solubility ([2]; organic solvent or mixture, thermodynamic from solid, DMSO, 20° C., read-out: Solubility at RT): > 400000 µg/mL
solubility ([2]; organic solvent or mixture, thermodynamic from solid, Dichloromethane, 20° C., read-out: Solubility at RT): < 1000 µg/mL
solubility ([2]; organic solvent or mixture, thermodynamic from solid, Ethyl Acetate, 20° C., read-out: Solubility at RT): < 1000 µg/mL
solubility ([2]; organic solvent or mixture, thermodynamic from solid, Heptane, 20° C., read-out: Solubility at RT): < 1000 µg/mL
solubility ([2]; organic solvent or mixture, thermodynamic from solid, Methanol: 5% vol. Water, 20° C., read-out: Solubility at RT): 1000 to 10000 µg/mL (≈ 3.78 to 37.8 mM)
solubility ([2]; organic solvent or mixture, thermodynamic from solid, Methanol: 10% vol. Water, 20° C., read-out: Solubility at RT): 1000 to 10000 µg/mL (≈ 3.78 to 37.8 mM)
solubility ([2]; organic solvent or mixture, thermodynamic from solid, Methanol, 20° C., read-out: Solubility at RT): 1000 to 6000 µg/mL (≈ 3.78 to 22.7 mM)
solubility ([2]; organic solvent or mixture, thermodynamic from solid, Tetrahydrofuran, 20° C., read-out: Solubility at RT): 1000 to 6000 µg/mL (≈ 3.78 to 22.7 mM)
solubility ([2]; organic solvent or mixture, thermodynamic from solid, Toluene, 20° C., read-out: Solubility at RT): < 1000 µg/mL
solubility ([2]; thermodynamic from solid, Water, 20° C., read-out: Solubility at RT): 1000 to 6000 µg/mL (≈ 3.78 to 22.7 mM)
solubility ([2]; thermodynamic from solid, water and common organic solvents, 20° C., read-out: Solubility): < 6000 µg/mL
solubility ([2]; toluene, 40 °C, organic solvent or mixture, thermodynamic from solid, read-out: Solubility at 40° C.): < 1000 µg/mL
solubility ([2]; water- or DMSO-containing binary solvent systems, 20° C.): moderate
DVS weight gain ([3]; between 0-90% RH, 25° C.): < 0.65 wt. %
Produced Crystal Form ([4]; 1,4-Dioxane:Water 90:10% vol., water activity 0.7, 5 °C, seeded with Form 3): Form 3
Produced Crystal Form ([4]; 1,4-Dioxane:Water 90:10% vol., water activity 0.7, 20 °C, seeded with Form 3): Form 1
Produced Crystal Form ([4]; 1,4-Dioxane:Water 96.5:3.5% vol., water activity 0.5, 7 °C, seeded with Form 3): Form 1
Produced Crystal Form ([4]; 1,4-Dioxane:Water 96.5:3.5% vol., water activity 0.5, 20 °C, seeded with Form 3): Form 1
Produced Crystal Form ([4]; 1,4-Dioxane:Water 99:1% vol., water activity 0.2, 20 °C, seeded with Form 3): Form 1
Water activity (αw) at which the form is the more stable ([4]; 20° C.): < 0.7
Produced Crystal Form ([4]; Water, water activity 1.0, 5 °C, Form 1 suspension seeded with Form 3): Form 3
Produced Crystal Form ([4]; Water, water activity 1.0, 20 °C, Form 1 suspension seeded with Form 3): Form 3
Water activity (αw) at which the form is the more stable ([4]; lower temperatures (5, and 7° C.)): < 0.5

[2H]C1([2H])C(=O)NC(=O)[C@@]([2H])(N2Cc3c(N)cccc3C2=O)C1([2H])[2H] [Form 3]
Physical stability by PXRD [1]: about half of the solid converted to Form 1; also recorded: partial conversion to Form 1
Time physically stable ([1]; stored in a closed vial): at least 3 weeks
DVS behaviour ([3]; below 20% relative humidity): dehydrate and re-hydrate with a relatively small hysteresis
DVS weight change ([3]; between 20-90% relative humidity, room temperature): no weight change
PXRD of residual solid after DVS ([3]; equilibrated at 0% RH for four hours): no change in solid form
Water activity (αw) at which the form is the more stable ([4]; 20° C.): > 0.7

[2H]C1([2H])C(=O)NC(=O)[C@@]([2H])(N2Cc3c(N)cccc3C2=O)C1([2H])[2H] [Amorphous D-(S)-lenalidomide]
Degradation by HPLC [5]: 2.5 % AUC

From patent US9643950B2, “Solid forms of {s-3-(4-amino-1-oxo-isoindolin-2-yl)(piperidine-3,4,4,5,5-d5)-2,6-dione}” (Concert Pharmaceuticals, Inc., priority 2012, dated 2017)
